# Entries after “also recorded” stand apart in the source; their conditions may differ.
# Key:
# Type in all cases: in vivo, rat (male Sprague Dawley)
# [1] = tested on: gastric damage due to stress induced by restricted water-immersion; test: Gastric damage due to stress induced by restricted water-immersion (single administration); conditions: for lesion index (% to control): 10 rats
# Method: (§1) Male Sprague Dawley rats weighing from 240 to 280 g were used as experimental animals.
# (§2) As H2 B, famotidine, and as gastrin receptor antagonist, L-365,260 described in Example 281 of Japanese Patent Publication (KOKAI) 63-238069 (EP 167,919; EP 284,256; U.S. Pat. No. 4,820,834; U.S. Pat. No. 5,004,741)), were used. […] For administration, a suspension of 10 mg famotidine or L-365,260 in 1 ml vehicle (0.5% methyl cellulose solution) was prepared. The combined formulation is a mixture of an equal amount of each suspension.
# (§3) A previously determined dose of each test compound (1.0 ml or 3.0 ml/kg) was charged in a syringe and administered orally to a rat directly into gaster using a stainless probe needle (.phi.1.2×L 80 mm) equipped to the syringe.
# (1) Gastric damage due to stress induced by restricted water-immersion (single administration test)
# Twenty four hour starved (ad libitum for water) male Sprague Dawley rats (270-290 g) were orally administered with a test compound and, 30 min later, were loaded with stress in the following manner. Rats were placed in a stress cage (Natsume Seisakusyo) and immersed in water tank at 23° C. upto the level of pectoral processus xiphoideus [Takagi et al, Chem. Pharm. Bull (Tokyo) 12, 465-472 (1964)]. Seven hours later, animals were withdrawn from the water tank and killed with ether. The gaster was extracted and 1% formalin solution (13 ml) was injected in it. […] The gaster was observed under anatomic microscope (x10) and longer diameter (mm) of each damages (bleeding erosion) appearing around fundic glands was measured.
# gastric acid secretion = test: Basic gastric acid secretion after interruption following continuous administration (pylorus ligation); conditions: for basic gastric acid secretion (in words): P<0.05
# Method: as §1, §2, §3
# (§4) B. Continuous administration test
# (§5) (A) A group consists of animals that received vehicle (0.5% methyl cellulose solution, 1 ml/kg).
# (§6) (B) A group consists of animals that received famotidine (a suspension of 10 mg famotidine in 1 ml 0.5% methyl cellulose) continuously at a dose of 10 or 30 mg/kg/day.
# (§7) (C) A group consists of animals that received L-365,260 continuously at a dose of 10 mg/kg/day.
# (§8) (D) A group consists of animals that received a combined formulation of famotidine and L-365,260 at a dose of 10 mg/kg/day for each compound.
# (2) Basic gastric acid secretion after interruption following the continuous administration of famotidine
# To a rat bred normally was administered continuously famotidine at a dose of 10 or 30 mg/kg/day for a week. After the final administration, the basis gastric acid secretion (total acid excretion) was determined according to the pylorus ligation method (4-hour-method) [Shay, H. et al., Gastroenterology, 5: 43-61 (1945)]. The determination was carried out following the final administration, […], […]
# Thus, rats were subjected to laparotomy under ether anesthetization and pylorus was ligated. Four hours later, gaster was extracted under ether anaesthetization and the accumulated gastric juice was collected. After centrifugation (3000 rpm, 10 min), pH and acidity of gastric juice was determined. The acidity was measured upto pH 7.0 with 0.1N NaOH. The total acid secretion (μEq/4 hr) was calculated by multiplying acidity by the volume of juice for each animal.
# [2] = tested on: aspirin-induced gastric mucosa damage; test: Aspirin-induced gastric mucosa damage following continuous administration; conditions: for lesion index (mm^2): 10 mg/kg p.o., 7 days, aspirin 200 mg/kg after two-day interruption; for aspirin-induced gastric mucosa damage (in words): continuous administration, two-day interruption
# Method: as §1, §2, §3, §4, §5, §6, §7, §8
# (3) Aspirin-induced gastric mucosa damage following a continuous administration of famotidine
# After two-day-interruption following a continuous administration of famotidine, aspirin (200 mg/kg) was administered to rats orally. Seven hours later, gaster was extracted under ether anesthetization and subjected to formalin treatment with 1% formalin solution. The length (mm) of gastric mucosa damage appearing around fundic glands was then measured. Lesion index was calculated by adding all the measurements. Rats had been starved for 24 hr before aspirin administration (ad libitum for water).
# [3] = day 2 after 7-day treatment, 10 mg/kg/day (Table 6)
# [4] = day 3 after 7-day treatment, 10 mg/kg/day (Table 6)
# [5] = immediately after 7 days, 10 mg/kg/day
# [6] = immediately after 7 days, 30 mg/kg/day
compound,measurement,setting,value
"NC(N)=Nc1nc(CSCCC(N)=NS(N)(=O)=O)cs1 [Famotidine, famotidine]",lesion index (% to control),[1]; 1 mg/kg p.o.,33.4 ± 5.5 % to control
same,inhibition of appearance of stress gastric damage (in words),[1]; 3 mg/kg,inhibited the appearance significantly
same,lesion index (% to control),[1]; 3 mg/kg p.o.,33.4 ± 5.5 % to control
same,basic gastric acid secretion (in words),"gastric acid secretion; 10 mg/kg/day, after a 48-hour interruption",increased significantly
same,basic gastric acid secretion (in words),"gastric acid secretion; 10 mg/kg/day, immediately after interrupting",inhibited significantly
same,basic gastric acid secretion (in words),"gastric acid secretion; 30 mg/kg/day, after a 4-day interruption",increased significantly
same,basic gastric acid secretion (in words),"gastric acid secretion; 30 mg/kg/day, immediately after interrupting",inhibited significantly
same,"increase in the basic acid secretion, acid rebound (in words)",gastric acid secretion; 2nd day after interruption following continuous administration,An increase in the basic acid secretion (acid rebound) was observed
same,inhibition (%) of total acid secretion,"gastric acid secretion; 24 hr after 7-day treatment, 10 mg/kg/day",-38.3%
same,total acid secretion,"gastric acid secretion; 24 hr after 7-day treatment, 10 mg/kg/day (Table 4)",821.0 ± 214.2 μEq/4 hr
same,inhibition (%) of total acid secretion,"gastric acid secretion; 48 hr after 7-day treatment, 10 mg/kg/day",-105.7%
same,total acid secretion,"gastric acid secretion; 48 hr after 7-day treatment, 10 mg/kg/day (Table 4)",948.9 ± 187.5 μEq/4 hr
same,total acid secretion,gastric acid secretion; [3],788.4 ± 217.7 μEq/4 hr
same,total acid secretion,gastric acid secretion; [4],682.4 ± 132.6 μEq/4 hr
same,inhibition (%) of total acid secretion,"gastric acid secretion; day 3 after 7-day treatment, 30 mg/kg/day",-45.3%
same,inhibition (%) of total acid secretion,"gastric acid secretion; day 4 after 7-day treatment, 30 mg/kg/day",-44.2%
same,inhibition (%) of total acid secretion,gastric acid secretion; [5],61.6%
same,total acid secretion,gastric acid secretion; [5],151.8 ± 29.8 μEg/49 hr
same,inhibition (%) of total acid secretion,gastric acid secretion; [6],59.9%
same,total acid secretion,gastric acid secretion; [6],158.4 ± 54.9 μEg/49 hr
same,lesion index (mm^2),[2],67.0 ± 14.2 mm^2
same,aspirin-induced gastric mucosa damage (in words),[2],the condition deteriorated significantly; also recorded: the ulcer index got worse significantly on the 2nd day after interruption
"Cc1cccc(NC(=O)N[C@@H]2N=C(c3ccccc3)c3ccccc3N(C)C2=O)c1 [L-365,260]",lesion index (% to control),[1]; 1 mg/kg p.o.,130.4 ± 20.6 % to control
same,lesion index (% to control),[1]; 3 mg/kg p.o.,84.7 ± 17.4 % to control
same,inhibition of appearance of stress gastric damage (in words),[1]; at either dose (1 or 3 mg/kg),does not inhibit the appearance of stress gastric damage
same,acid excretion after continuous administration alone (in words),gastric acid secretion; alone for a week,did not differed from those obtained in control group
same,total acid secretion,gastric acid secretion; [3],631.4 ± 147.9 μEq/4 hr
same,total acid secretion,gastric acid secretion; [4],681.0 ± 142.9 μEq/4 hr
same,lesion index (mm^2),[2],43.2 ± 13.7 mm^2
same,aspirin-induced gastric mucosa damage (in words),[2],"the condition seemed to have tendency to deteriorate, but it is not significant"

# Reference: patent US5776929A, “Benzodiazepine derivative” (Shionogi & Co., Ltd., priority 1993, dated 1998)
